Experimental data from patent US9592268B2, “Endothelium protective materials and methods of use” (CORNELL UNIVERSITY, priority 2011, dated 2017).

How the values were obtained:
[1] = target: T1, murine recombinant apoM (r-apoM) (Mus musculus, UniProt Q9Z1R3); assay: intrinsic fluorescence quenching of r-apoM by S1P; format: binding; conditions: r-apoM 0.7 μM; S1P 0-3.2 μmol/L; excitation 295 nm, emission 345 nm
T1 construct: A truncated mouse r-apoM containing the lipocalin domain but lacking the hydrophobic signal peptide was produced in Escherichia coli; made in house; host or cells: Escherichia coli
T1 sequence (Q9Z1R3 22-190): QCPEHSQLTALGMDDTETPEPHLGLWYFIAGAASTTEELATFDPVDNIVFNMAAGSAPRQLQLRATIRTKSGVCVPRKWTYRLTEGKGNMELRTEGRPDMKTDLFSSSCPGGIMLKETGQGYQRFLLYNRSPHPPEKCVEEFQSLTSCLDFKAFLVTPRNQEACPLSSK
Description: FIG. 3. […] A truncated mouse r-apoM containing the lipocalin domain but lacking the hydrophobic signal peptide was produced in Escherichia coli. The r-apoM (0.7 μM) was incubated with increasing concentrations of S1P (final concentration: 0-3.2 μmol/L). The intrinsic fluorescence of apoM was measured with excitation at 295 nm and emission at 345 nm. The data are mean±SEM (n=3).
Intrinsic fluorescence quenching was studied after addition of S1P to 0.7 μM murine recombinant apoM (r-apoM) (SEVVANA et al., J. Mol. Biol, 393:920-936 (2009)). Because it is possible that murine r-apoM binds and contains myristic acid in a manner similar to that of its human counterpart (SEVVANA et al., J. Mol. Biol, 393:920-936 (2009)), the binding data are reported as IC50 values. This approach also allows S1P binding to murine r-apoM to be compared directly with the previous data on human apoM-S1P binding.

recombinant human apoM = target: T2, recombinant human apoM (Homo sapiens, UniProt O95445); conditions: recombinant human apoM expressed in E. coli; SEVVANA et al. 2009; read-out: IC50 for displacement of myristic acid from apoM; cited from earlier work
T2 construct: host or cells: E. coli
T2 sequence (O95445 whole entry): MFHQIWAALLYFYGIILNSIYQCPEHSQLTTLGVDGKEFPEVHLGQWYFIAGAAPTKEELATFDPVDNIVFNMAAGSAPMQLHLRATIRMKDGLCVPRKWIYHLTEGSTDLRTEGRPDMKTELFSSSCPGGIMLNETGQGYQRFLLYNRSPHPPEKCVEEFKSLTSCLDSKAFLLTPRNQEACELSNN

HUVEC [2] = assay: HUVEC migration (chemotaxis chamber) assay; format: cell-based, human
Description: FIG. 4. ApoM-bound S1P activates S1P1-mediated intracellular signaling pathways and affects migration of HUVEC. (A) Confocal microscopy of HEK293 cells stably expressing S1P1-GFP. Cells were serum starved, stimulated for 1 h with indicated ligands, fixed and imaged. ApoM^+HDL (equivalent to ˜100 nM S1P as determined by LC/MS/MS) or ApoM^−HDL was used at 100 μg/ml. Fatty acid free BSA and r-apoM were complexed with S1P and used at the final concentration of 100 nM (equimolar for both protein and lipid). Scale bar, 20 μm. […] Activation of p44/42, and Akt was examined by western blot analysis using phospho-specific antibodies. (C) HUVEC were serum starved and pre-treated with 1 μM VPC44116 for 30 min where indicated and subjected to migration assay with 10 μg/ml apoM^+HDL (10 nM S1P) or 10 μg/ml apoM^−HDL or 10 nM albumin-S1P. Data are mean±SD, n=3. * p<0.01. (D) Microscopy of HUVEC that were serum starved and stimulated with 100 μg/ml apoM^+HDL, apoM^−HDL, 100 nM albumin-S1P, r-apoM-S1P or 100 nM S1P-free r-apoM for 1 h. […] Scale bar, 20 μm. […]
General Methods. […] Numerical differences were analyzed with two-tailed Student's t test.
Migration Assays. […] The filter was scanned, and the color density of each well was quantified using ImageJ software. […]

endogenous S1P1 receptor = assay: p44/42 and Akt activation in HUVEC (western blot, phospho-specific antibodies); format: cell-based, human; conditions: 1 μM VPC44116 pre-treatment 30 min
Description: (§1) FIG. 4. ApoM-bound S1P activates S1P1-mediated intracellular signaling pathways and affects migration of HUVEC. (A) Confocal microscopy of HEK293 cells stably expressing S1P1-GFP. Cells were serum starved, stimulated for 1 h with indicated ligands, fixed and imaged. ApoM^+HDL (equivalent to ˜100 nM S1P as determined by LC/MS/MS) or ApoM^−HDL was used at 100 μg/ml. Fatty acid free BSA and r-apoM were complexed with S1P and used at the final concentration of 100 nM (equimolar for both protein and lipid). Scale bar, 20 μm. […] Activation of p44/42, and Akt was examined by western blot analysis using phospho-specific antibodies. (C) HUVEC were serum starved and pre-treated with 1 μM VPC44116 for 30 min where indicated and subjected to migration assay with 10 μg/ml apoM^+HDL (10 nM S1P) or 10 μg/ml apoM^−HDL or 10 nM albumin-S1P. Data are mean±SD, n=3. * p<0.01. (D) Microscopy of HUVEC that were serum starved and stimulated with 100 μg/ml apoM^+HDL, apoM^−HDL, 100 nM albumin-S1P, r-apoM-S1P or 100 nM S1P-free r-apoM for 1 h. […] Scale bar, 20 μm. HUVEC were serum starved and stimulated for 5 min with 30 nM albumin-S1P, r-apoM-S1P, 10 μg/mL ApoM+ HDL, or 30 nM S1P-free r-apoM (E) or with increasing concentrations of albumin or r-apoM-S1P (F). […]
(§2) General Methods. […] Numerical differences were analyzed with two-tailed Student's t test. […]

S1P1 receptor = target: T3, S1P1 receptor (Homo sapiens, UniProt P21453); assay: S1P1 internalization in HEK293 cells stably expressing S1P1-GFP; format: cell-based; conditions: stimulated 1 h; HDL 100 μg/ml; S1P complexes 100 nM
T3 construct: expressed in transfected cells
T3 sequence (P21453 whole entry): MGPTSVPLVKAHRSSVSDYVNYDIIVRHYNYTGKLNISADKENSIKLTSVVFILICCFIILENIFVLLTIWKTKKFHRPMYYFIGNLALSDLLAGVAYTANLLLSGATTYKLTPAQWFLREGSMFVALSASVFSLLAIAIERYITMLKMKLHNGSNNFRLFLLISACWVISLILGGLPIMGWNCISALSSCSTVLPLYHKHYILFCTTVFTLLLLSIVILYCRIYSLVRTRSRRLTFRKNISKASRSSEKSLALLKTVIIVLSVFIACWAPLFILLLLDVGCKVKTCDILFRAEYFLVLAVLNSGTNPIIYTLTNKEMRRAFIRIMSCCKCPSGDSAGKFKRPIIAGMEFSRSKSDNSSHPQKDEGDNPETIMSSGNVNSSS
Description: as §1, §2

HUVEC [3] = assay: adherens junction assembly assay (VE-cadherin immunostaining) in HUVEC; format: cell-based, human; conditions: HUVEC stimulated 1 h; HDL 100 μg/ml; S1P complexes or r-apoM 100 nM
Description: as §1, with “(F). Activation of p44/42 and Akt was examined by Western blot analysis using phospho-specific antibodies.” for “(F).”

## CCCCCCCCCCCCC/C=C/[C@@H](O)[C@@H](N)COP(=O)(O)O [S1P, Sphingosine-1-phosphate]
[1]
  quenching of intrinsic fluorescence of mouse r-apoM: quenches the intrinsic fluorescence
Recombinant human apoM
  IC50: 900 nM

## CCCCCCCCc1cccc(NC(=O)[C@H](N)CCP(=O)(O)O)c1 [VPC44116]
HUVEC [2]; 1 μM VPC44116 for 30 min, 10 μg/ml apoM+HDL
  effect of S1P1 antagonist pre-treatment on apoM+HDL-stimulated chemotaxis: abolished
Endogenous S1P1 receptor
  effect of S1P1 antagonist on apoM+HDL-induced p44/42 and Akt phosphorylation: essentially abolished
Endogenous S1P1 receptor; FCS stimulation
  effect of S1P1 antagonist on cells stimulated by FCS: no inhibitory effects

## albumin-bound S1P: S1P complexed with equi-molar fatty acid free bovine serum albumin, used as a positive control [reference compound]
HUVEC [2]; serum-starved HUVEC, 4 h at 37° C.
  chemotaxis of HUVEC toward chemoattractant: worked as chemoattractants in a concentration-dependent manner
S1P1 receptor
  internalization of GFP-S1P1 receptor: robust internalization
HUVEC [3]
  adherens junction and F-actin formation: well-spread, contained F-actin and formed adherens junctions
